Measurements as given in PubChem BioAssay AID330 (DTP/NCI, 2004).
Inconclusive results and toxic doses are left out. The calls were made as follows: active = survival T/C of 150% or more; inactive = T/C below 125% in these data.

Test system: P388 leukemia ip, CD2F1 mice, survival T/C
Experiment: NCI In Vivo Anticancer Drug Screen. Data for tumor model P388 Leukemia (intraperitoneal) in CD2F1 (CDF1) mice
Details: endpoint: median survival time, higher = longer survival
Summary of the method: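 Mice carrying the transplanted tumor received test compound or vehicle. Survival was recorded in each group, and the value is the treated-group measurement divided by that of the vehicle-treated control group.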

[1] = dose: 100.0 mg/kg/injection, schedule: Q01DX001 (ip), vehicle: saline with Tween-80
[2] = dose: 100.0 mg/kg/injection, schedule: Q04DX003 (ip), vehicle: other
[3] = dose: 200.0 mg/kg/injection, schedule: Q04DX003 (ip), vehicle: other
[4] = dose: 400.0 mg/kg/injection, schedule: Q04DX003 (ip), vehicle: other
[5] = dose: 25.0 mg/kg/injection, schedule: Q04DX003 (ip), vehicle: Klucel (hydroxypropylcellulose) (HPC)
[6] = dose: 50.0 mg/kg/injection, schedule: Q04DX003 (ip), vehicle: Klucel (hydroxypropylcellulose) (HPC)
[7] = dose: 100.0 mg/kg/injection, schedule: Q04DX003 (ip), vehicle: Klucel (hydroxypropylcellulose) (HPC)
[8] = dose: 100.0 mg/kg/injection, schedule: Q04DX002 (ip), vehicle: Klucel (hydroxypropylcellulose) (HPC)
[9] = dose: 200.0 mg/kg/injection, schedule: Q04DX002 (ip), vehicle: Klucel (hydroxypropylcellulose) (HPC)
[10] = dose: 50.0 mg/kg/injection, schedule: Q01DX005 (ip), vehicle: Klucel (hydroxypropylcellulose) (HPC)
[11] = dose: 100.0 mg/kg/injection, schedule: Q01DX005 (ip), vehicle: Klucel (hydroxypropylcellulose) (HPC)
[12] = dose: 200.0 mg/kg/injection, schedule: Q01DX005 (ip), vehicle: Klucel (hydroxypropylcellulose) (HPC)
[13] = dose: 60.0 mg/kg/injection, schedule: Q01DX005 (ip), vehicle: Klucel (hydroxypropylcellulose) (HPC)
[14] = dose: 120.0 mg/kg/injection, schedule: Q01DX005 (ip), vehicle: Klucel (hydroxypropylcellulose) (HPC)
[15] = dose: 240.0 mg/kg/injection, schedule: Q01DX005 (ip), vehicle: Klucel (hydroxypropylcellulose) (HPC)
[16] = dose: 50.0 mg/kg/injection, schedule: Q01DX009 (ip), vehicle: suspension in saline
[17] = dose: 100.0 mg/kg/injection, schedule: Q01DX009 (ip), vehicle: suspension in saline
[18] = dose: 200.0 mg/kg/injection, schedule: Q01DX009 (ip), vehicle: suspension in saline
[19] = dose: 100.0 mg/kg/injection, schedule: Q04DX003 (ip), vehicle: saline
[20] = dose: 200.0 mg/kg/injection, schedule: Q04DX003 (ip), vehicle: saline
[21] = dose: 50.0 mg/kg/injection, schedule: Q01DX009 (ip), vehicle: saline
[22] = dose: 100.0 mg/kg/injection, schedule: Q01DX009 (ip), vehicle: saline
[23] = dose: 200.0 mg/kg/injection, schedule: Q01DX009 (ip), vehicle: saline
[24] = dose: 60.0 mg/kg/injection, schedule: Q01DX005 (ip), vehicle: saline with Tween-80
[25] = dose: 120.0 mg/kg/injection, schedule: Q01DX005 (ip), vehicle: saline with Tween-80
[26] = dose: 240.0 mg/kg/injection, schedule: Q01DX005 (ip), vehicle: saline with Tween-80

Measured: T/C

Cc1cc2nc(C(C)(C)F)c(=O)[nH]c2cc1C
inactive: [1] 102 % of control | dose: 200.0 mg/kg/injection, schedule: Q01DX001 (ip), vehicle: saline with Tween-80 94 % of control | dose: 400.0 mg/kg/injection, schedule: Q01DX001 (ip), vehicle: saline with Tween-80 96 % of control

C=C(Cl)CN(CCCC(=O)O)c1ccccc1
inactive: [2] 100 % of control | [3] 109 % of control | [4] 90 % of control

Oc1ccc(N=Nc2ccc3ccc4cccc5ccc2c3c45)c2cccnc12
inactive: [5] 101 % of control | [6] 101 % of control | [7] 100 % of control

CCN1CCc2cccc3c2C1c1ccccc1CC3 (centres undefined)
inactive: dose: 50.0 mg/kg/injection, schedule: Q01DX001 (ip), vehicle: saline with Tween-80 100 % of control | [1] 101 % of control

OC1C2CCC1C(N1CCOCC1)CC2 (centres undefined)
inactive: dose: 50.0 mg/kg/injection, schedule: Q01DX009 (ip), vehicle: saline sonified 100 % of control | dose: 100.0 mg/kg/injection, schedule: Q01DX009 (ip), vehicle: saline sonified 100 % of control | dose: 200.0 mg/kg/injection, schedule: Q01DX009 (ip), vehicle: saline sonified 105 % of control

O=C(NCCc1ccccn1)c1cc(Cl)ccc1O
inactive: [8] 95 % of control | [9] 103 % of control | dose: 400.0 mg/kg/injection, schedule: Q04DX002 (ip), vehicle: Klucel (hydroxypropylcellulose) (HPC) 100 % of control

CC(C)C1NC(=O)N(C2CCCCCC2)C1=O (centres undefined)
inactive: [10] 100 % of control | [11] 96 % of control | [12] 100 % of control

C[C@@H]1CN(c2ccccc2)C[C@H](C)OS(=O)O1 (some centres undefined)
inactive: dose: 50.0 mg/kg/injection, schedule: Q01DX001 (ip), vehicle: Klucel (hydroxypropylcellulose) (HPC) 105 % of control | [10] 96 % of control | dose: 100.0 mg/kg/injection, schedule: Q01DX001 (ip), vehicle: Klucel (hydroxypropylcellulose) (HPC) 103 % of control | [11] 100 % of control | dose: 200.0 mg/kg/injection, schedule: Q01DX001 (ip), vehicle: Klucel (hydroxypropylcellulose) (HPC) 97 % of control | [12] 93 % of control

NC(=O)Cc1nc(O)cs1
inactive: [13] 102 % of control | [14] 101 % of control | [15] 109 % of control

O=C(N=C=S)c1ccccc1
inactive: [2] 90 % of control | [3] 100 % of control | [4] 109 % of control

c1cc2nc(c1)CSCc1cc3c(cc1CSCc1cccc(n1)CSC3)CSC2
inactive: [16] 102 % of control | [17] 94 % of control | [18] 86 % of control

C=COc1ccccc1C1=NC(C(C)(C)C)(C(C)(C)C)P(OC)(OC)(OC)O1
inactive: [19] 102 % of control | [20] 108 % of control | dose: 400.0 mg/kg/injection, schedule: Q04DX003 (ip), vehicle: saline 100 % of control

COc1cc2cccnc2c2[nH]c(=O)c3c(c12)CCC3
inactive: [19] 101 % of control | [20] 99 % of control

CC(O)C(O)C(O)C(=O)NCc1ccccc1 (centres undefined)
inactive: dose: 50.0 mg/kg/injection, schedule: Q01DX005 (ip), vehicle: saline with Tween-80 100 % of control | dose: 100.0 mg/kg/injection, schedule: Q01DX005 (ip), vehicle: saline with Tween-80 94 % of control | dose: 200.0 mg/kg/injection, schedule: Q01DX005 (ip), vehicle: saline with Tween-80 99 % of control

C=C1C(=O)OC2C/C(C=O)=C/CC/C(C)=C/C(O)C12 (centres undefined)
inactive: dose: 9.0 mg/kg/injection, schedule: Q01DX005 (ip), vehicle: Klucel (hydroxypropylcellulose) (HPC) 96 % of control | dose: 18.0 mg/kg/injection, schedule: Q01DX005 (ip), vehicle: Klucel (hydroxypropylcellulose) (HPC) 99 % of control | dose: 36.0 mg/kg/injection, schedule: Q01DX005 (ip), vehicle: Klucel (hydroxypropylcellulose) (HPC) 105 % of control | dose: 72.0 mg/kg/injection, schedule: Q01DX005 (ip), vehicle: Klucel (hydroxypropylcellulose) (HPC) 106 % of control

NC(CP(=O)(O)O)C(=O)O (centres undefined)
inactive: dose: 50.0 mg/kg/injection, schedule: Q01DX005 (ip), vehicle: saline 106 % of control | dose: 100.0 mg/kg/injection, schedule: Q01DX005 (ip), vehicle: saline 101 % of control | dose: 200.0 mg/kg/injection, schedule: Q01DX005 (ip), vehicle: saline 91 % of control

O=c1[nH]c2ccccc2n1CCCN1CCC(n2c(=O)[nH]c3cc(Cl)ccc32)CC1
inactive: [21] 90 % of control | [22] 91 % of control | [23] 88 % of control

CN(C)Cc1c(N=Nc2ccc3ccc4cccc5ccc2c3c45)[nH]c2ccccc12
inactive: dose: 50.0 mg/kg/injection, schedule: Q01DX009 (ip), vehicle: saline with Tween-80 103 % of control | dose: 100.0 mg/kg/injection, schedule: Q01DX009 (ip), vehicle: saline with Tween-80 115 % of control | dose: 200.0 mg/kg/injection, schedule: Q01DX009 (ip), vehicle: saline with Tween-80 115 % of control

NC(=S)N/N=C\c1nc2ccccc2c2ccccc12
inactive: dose: 50.0 mg/kg/injection, schedule: Q04DX002 (ip), vehicle: Klucel (hydroxypropylcellulose) (HPC) 99 % of control | [8] 95 % of control | [9] 94 % of control

O=c1n(-c2ccccc2)c(=O)n2n1C1C=CC2C2C3OC3C21 (centres undefined)
inactive: dose: 12.5 mg/kg/injection, schedule: Q04DX003 (ip), vehicle: Klucel (hydroxypropylcellulose) (HPC) 100 % of control | [5] 101 % of control | [6] 108 % of control

COc1cc(OC)c(C2CC(C)(N3CCCC3)Oc3cc4c(cc32)OCO4)c(OC)c1 (centres undefined)
inactive: [24] 94 % of control | [25] 91 % of control | [26] 87 % of control

Cc1nc(Nc2ccccc2Cl)c2ccsc2n1
inactive: [10] 100 % of control | [11] 93 % of control | [12] 87 % of control

O=[N+]([O-])c1ccc(C(Cl)C2(Br)C=c3ccccc3=C2)cc1 (centres undefined)
inactive: [7] 100 % of control | dose: 200.0 mg/kg/injection, schedule: Q04DX003 (ip), vehicle: Klucel (hydroxypropylcellulose) (HPC) 100 % of control | dose: 400.0 mg/kg/injection, schedule: Q04DX003 (ip), vehicle: Klucel (hydroxypropylcellulose) (HPC) 95 % of control

O=C(NS(=O)C1C=CC2CCCC21)OC1CCCCC1c1ccccc1 (centres undefined)
inactive: [10] 109 % of control | [11] 100 % of control | [12] 97 % of control

COc1ccc(C(O)C/[N+]([O-])=C/c2ncc([N+](=O)[O-])n2C)cc1 (centres undefined)
inactive: [21] 97 % of control | [22] 100 % of control | [23] 106 % of control

CN(C)C1=NC(N(C)C)=C2C=CC=C12
inactive: dose: 15.0 mg/kg/injection, schedule: Q01DX005 (ip), vehicle: Klucel (hydroxypropylcellulose) (HPC) 103 % of control | dose: 30.0 mg/kg/injection, schedule: Q01DX005 (ip), vehicle: Klucel (hydroxypropylcellulose) (HPC) 97 % of control | [13] 96 % of control

CCCC(CC(=O)O)c1c2c(c(O)c3c1OC(C)C(C)C3=O)C=CC(C)(C)O2 (centres undefined)
inactive: [13] 97 % of control | [14] 103 % of control | [15] 93 % of control

CSCC[C@@H]1C(=O)N(C)[C@H](C(C)(C)C)N1C(=O)c1ccccc1
inactive: [24] 100 % of control | [25] 100 % of control | [26] 97 % of control

Cc1ccc(N2C(=O)CCSC2=S)cc1Br
inactive: [16] 103 % of control | [17] 107 % of control | [18] 107 % of control

O=C1CC(c2ccccc2)NCCCCN2C(=O)C=Cc3ccccc3C2CCN1 (centres undefined)
inactive: dose: 6.25 mg/kg/injection, schedule: Q01DX009 (ip), vehicle: Klucel (hydroxypropylcellulose) (HPC) 100 % of control | dose: 12.5 mg/kg/injection, schedule: Q01DX009 (ip), vehicle: Klucel (hydroxypropylcellulose) (HPC) 94 % of control

CC(C)c1nc2c(c(=O)o1)CCS2
inactive: [10] 100 % of control | [11] 98 % of control | [12] 98 % of control
